Measurements as given in paper PMC9452538, “The antimicrobial peptide LI14 combats multidrug-resistant bacterial infections” (Communications Biology, 2022).

What was measured:
[1] = tested on: E. coli ATCC 25922; experiment: Resistance development study, serial passages; type: cell-based, Escherichia coli; conditions: 80 serial passages at sub-inhibitory concentration (0.5-fold MIC)
Method: (§1) The ability of LI14 peptide to induce resistance was studied as previously described. Resistance to the therapeutically important drugs rifampicin and ciprofloxacin was measured using S. aureus ATCC 29213 and E. coli ATCC 25922 as test strains. The middle and final MICs were monitored after eighty such serial passages exposed to the tested medicines (0.5-fold MIC), and the fold change in MIC increase was recorded.

[2] = tested on: MRSA T144; experiment: Checkerboard assay with LI14; type: cell-based, Staphylococcus aureus
Method: (§2) Through checkerboard assay using two-fold serially diluted drugs (8 × 8 matrix), we evaluated the synergistic effects of LI14 with different mechanisms of antibiotics. The absorbance of cultures at 600 nm was determined by a Microplate reader after 18 h of incubation with (1.5 × 10^6 CFUs/mL) bacterial suspension. The FIC index (FICI) was calculated by performing two biological replicates for each combination. The formula is as follows: FIC index = FICIa + FICIb = MICab/MICa + MICba/Mb. An FIC index of ≤0.5 indicates synergy.
(§3) a/bMICs of antibiotics in the absence or presence of ¼ MIC of LI14.
(§4) cDegree of antibiotics potentiation in the presence of ¼ MIC of LI14.
(§5) –, none of potentiation activity.

[3] = tested on: MDR E. coli B2; experiment: Checkerboard assay with LI14; type: cell-based, Escherichia coli; conditions: for FIC index: antibiotic in combination with LI14, checkerboard 8 × 8, 18 h, ≤0.5 = synergy; for Potentiation: antibiotic potentiation in the presence of ¼ MIC of LI14; for MICa of antibiotic: in the absence of LI14; for MICb of antibiotic: in the presence of ¼ MIC of LI14
Method: as §2, §3, §4, §5

[4] = tested on: sensitive E. coli ATCC 25922; experiment: Checkerboard assay with LI14; type: cell-based, Escherichia coli; conditions: for FIC index: antibiotic in combination with LI14, checkerboard; for MICa of antibiotic: in the absence of LI14
Method: as §2, §3, §4, §5

[5] = tested on: S. aureus ATCC 29213; experiment: Resistance development study, serial passages; type: cell-based, Staphylococcus aureus; conditions: 80 serial passages at sub-inhibitory concentration (0.5-fold MIC)
Method: as §1

[6] = tested on: E. coli B2; experiment: Neutropenic mouse thigh infection model; type: in vivo, CD-1 mice; conditions: RIF 20 mg/kg i.p., 48 h
Method: Female CD-1 mice (n = 6 biologically independent animals per group) were first given cyclophosphamide (two consecutive injections of 150 and 100 mg kg^−1 at 4 and 1 day before infection) to construct neutropenia models. The mice’s right thighs were then injected with 100 μL MRSA T144 or E. coli B2 suspensions (10^5 CFUs per mouse). Post-infection of 1 h, 100 μL LI14 peptide (10 or 20 mg/kg), ampicillin/rifampicin (20 mg/kg) or a combination of LI14 with ampicillin/ rifampicin (10 + 20 mg/kg) were given by intraperitoneal injection. All mice were euthanized 48 h after drug administration, and right thigh muscle tissue was removed aseptically, homogenized, serially diluted, and plated on MHA to qualify bacterial loads after overnight incubation at 37 °C.

[7] = in the presence of ¼ MIC of LI14

SMILES | Increase in MIC after serial passages [1] [fold] | FIC index ([2]; antibiotic in combination with LI14, checkerboard) | MICa of antibiotic ([2]; in the absence of LI14) [µg/mL] | MICb of antibiotic [2, 7] [µg/mL] | FIC index [3] | Potentiation [3] [fold] | MICa of antibiotic [3] [µg/mL] | MICb of antibiotic [3] [µg/mL] | FIC index [4] | MICa of antibiotic [4] [µg/mL] | MICb of antibiotic [4, 7] [µg/mL] | Increase in MIC after serial passages [5] [fold] | Bacterial load in thigh ([6]; animal 1) [Log10CFUs/thigh] | Bacterial load in thigh ([6]; animal 2) [Log10CFUs/thigh] | Bacterial load in thigh ([6]; animal 3) [Log10CFUs/thigh] | Bacterial load in thigh ([6]; animal 4) [Log10CFUs/thigh] | Bacterial load in thigh ([6]; animal 5) [Log10CFUs/thigh] | Bacterial load in thigh ([6]; animal 6) [Log10CFUs/thigh] | Potentiation [4, 7] [fold]
O=C(O)c1cn(C2CC2)c2cc(N3CCNCC3)c(F)cc2c1=O [Ciprofloxacin] | 256 | 2.0 | 2 | 2 | 0.188 | 8 | 32 | 4 | 1.5 | 0.008 | 0.008 |  |  |  |  |  |  |  | 
CO[C@H]1/C=C/O[C@@]2(C)Oc3c(C)c(O)c4c(O)c(c(/C=N/N5CCN(C)CC5)c(O)c4c3C2=O)NC(=O)/C(C)=C\C=C\[C@H](C)[C@H](O)[C@@H](C)[C@@H](O)[C@@H](C)[C@H](OC(C)=O)[C@@H]1C [Rifampicin] |  |  |  |  | < 0.078 | > 64 | > 128 | 2 | < 0.078 | > 128 | 2 | 1024 | 6.89 | 6.97 | 7.76 | 7.96 | 6.83 | 6.97 | > 64
